Results reported in DBAASP.
Values after ≈ are worked out from the molar mass of the structure shown. Values joined by “and” are separate entries in the source; they are usually repeats but may differ in a detail not shown here. Equal values may be shown once.

Tests used:
Assay in all cases: ≥ marks a high value that may be exact or a test limit, other limits are often not marked, values filed in µg/mL are converted to µM
[1] = system: Candida albicans ATCC 90028
[2] = system: Candida parapsilosis ATCC 22019
[3] = system: Pseudomonas aeruginosa ATCC 27853
Listeria ivanovii = system: Listeria ivanovii
[4] = system: Staphylococcus aureus ATCC 25923
[5] = system: Klebsiella pneumoniae ATCC 13883
[6] = system: Acinetobacter baumannii ATCC 19606
[7] = system: Escherichia coli ATCC 25922
Saccharomyces cerevisiae = system: Saccharomyces cerevisiae
[8] = system: Streptococcus pyogenes ATCC 19615
[9] = system: Enterococcus faecalis ATCC 29212
[10] = system: Staphylococcus aureus ATCC BAA-44
[11] = system: Streptococcus sobrinus ATCC 6715
[12] = system: Streptococcus sanguinis ATCC 10556
[13] = system: Streptococcus mutans UA159
Escherichia coli MG1655 = system: Escherichia coli MG1655
[14] = system: Streptococcus pneumoniae ATCC 49619
Bacillus subtilis PS832 = system: Bacillus subtilis PS832
[15] = system: Klebsiella aerogenes ATCC 13048
[16] = system: Mycobacterium tuberculosis H37Rv
[17] = system: Escherichia coli MG1655 ΔrecA
[18] = system: Staphylococcus epidermidis ATCC 12228
Escherichia coli DL7 = system: Escherichia coli DL7
Escherichia coli D22 = system: Escherichia coli D22
Micrococcus luteus = system: Micrococcus luteus
Salmonella typhimurium = system: Salmonella typhimurium
Neurospora crassa = system: Neurospora crassa
Alternaria brassicicola = system: Alternaria brassicicola
Fusarium haematococcum = system: Fusarium haematococcum
Bacillus megaterium = system: Bacillus megaterium
Ascochyta pisi = system: Ascochyta pisi
Escherichia coli D31 = system: Escherichia coli D31
Bacillus subtilis = system: Bacillus subtilis
Trichoderma viride = system: Trichoderma viride
Pediococcus acidilactici = system: Pediococcus acidilactici
Fusarium culmorum = system: Fusarium culmorum
Aerococcus viridans = system: Aerococcus viridans
Botrytis cinerea = system: Botrytis cinerea
Streptococcus mutans = system: Streptococcus mutans
[19] = system: Mycobacterium tuberculosis mc2-6020
Streptococcus agalactiae = system: Streptococcus agalactiae
Klebsiella pneumoniae = system: Klebsiella pneumoniae
[20] = system: Bacillus subtilis BGSC 1A1
[21] = system: Mycobacterium tuberculosis mc2-6230
Streptococcus pyogenes = system: Streptococcus pyogenes
[22] = system: Mycobacterium tuberculosis CSU87

## CC[C@H](C)[C@H](NC(=O)[C@H](CCCN=C(N)N)NC(=O)[C@H](CO)NC(=O)[C@H](CC(C)C)NC(=O)[C@H](Cc1ccccc1)NC(=O)[C@H](CO)NC(=O)[C@@H](N)Cc1ccccc1)C(=O)N[C@@H](Cc1ccccc1)C(N)=O [FSFLSRIF]
[1]
  MIC: ≥ 100 µM
[2]
  MIC: ≥ 100 µM
[3]
  MIC: > 100 µM
Listeria ivanovii
  MIC: ≥ 100 µM
[4]
  MIC: > 100 µM
[5]
  MIC: ≥ 100 µM
[6]
  MIC: > 100 µM
[7]
  MIC: 100 µM (≈ 102 µg/mL)
Saccharomyces cerevisiae
  MIC: 25 µM (≈ 25.4 µg/mL)
[8]
  MIC: ≥ 50 µM
[9]
  MIC: > 100 µM
[10]
  MIC: ≥ 100 µM

## NCCCC[C@H](NC(=O)[C@H](CCCCN)NC(=O)[C@H](Cc1ccccc1)NC(=O)[C@H](Cc1ccccc1)NC(=O)[C@H](CCCCN)NC(=O)[C@H](CCCCN)NC(=O)[C@H](Cc1ccccc1)NC(=O)[C@H](Cc1ccccc1)NC(=O)[C@@H](N)CCCCN)C(=O)N[C@@H](Cc1c[nH]c2ccccc12)C(=O)O [KFFKKFFKKW]
[11]
  MIC: ≥ 179 µM
[12]
  MIC: ≥ 357 µM
[13]
  MIC: ≥ 357 µM

## CC(C)C[C@H](NC(=O)CNC(=O)[C@H](C)NC(=O)[C@@H](N)CCCN=C(N)N)C(=O)N[C@@H](CCC(N)=O)C(=O)N[C@@H](Cc1ccccc1)C(=O)N1CCC[C@H]1C(=O)N[C@H](C(=O)NCC(=O)N[C@@H](CCCN=C(N)N)C(=O)N[C@H](C(=O)N[C@@H](Cc1cnc[nH]1)C(=O)N[C@@H](CCCN=C(N)N)C(=O)N[C@@H](CC(C)C)C(=O)N[C@@H](CC(C)C)C(=O)N[C@@H](CCCN=C(N)N)C(=O)N[C@@H](CCCCN)C(N)=O)C(C)C)C(C)C [RAGLQFPVGRVHRLLRK]
Escherichia coli MG1655
  MIC: ≥ 64 µM
[14]
  MIC: ≥ 300 µM
Bacillus subtilis PS832
  MIC: 8 µM (≈ 16 µg/mL)
[15]
  MIC: ≥ 64 µM
[16]
  MIC: ≥ 300 µM
[17]
  MIC: ≥ 32 µM
[18]
  MIC: 8 µM (≈ 16 µg/mL)
Escherichia coli DL7
  MIC: ≥ 32 µM and 16 µM

## CC[C@H](C)[C@H](NC(=O)[C@@H](NC(=O)[C@@H]1CCCN1C(=O)[C@@H](NC(=O)[C@@H]1CCCN1C(=O)[C@H](CCCCN)NC(=O)[C@H](CCCCN)NC(=O)[C@H](CO)NC(=O)CN)C(C)C)[C@@H](C)CC)C(=O)N[C@@H](Cc1ccc(O)cc1)C(=O)N[C@H]1CSSC[C@@H](C(=O)N[C@@H](CCC(N)=O)C(=O)N[C@@H](CCCN=C(N)N)C(=O)O)NC(=O)[C@H](CCCCN)NC(=O)CNC(=O)[C@H]([C@@H](C)O)NC(=O)[C@H](CCCN=C(N)N)NC(=O)[C@H](CCCN=C(N)N)NC(=O)[C@H](CC(N)=O)NC1=O [GSKKPVPIIYCNRRTGKCQR]
Escherichia coli D22
  MIC: 28.3 µM (≈ 65.1 µg/mL)
Micrococcus luteus
  MIC: 3.54 µM (≈ 8.14 µg/mL)
Salmonella typhimurium
  MIC: 28.3 µM (≈ 65.1 µg/mL)
Neurospora crassa
  MIC: 7.07 µM (≈ 16.3 µg/mL)
Alternaria brassicicola
  MIC: 7.07 µM (≈ 16.3 µg/mL)
Fusarium haematococcum
  MIC: 3.54 µM (≈ 8.14 µg/mL)
Bacillus megaterium
  MIC: 3.54 µM (≈ 8.14 µg/mL)
Ascochyta pisi
  MIC: 14.1 µM (≈ 32.6 µg/mL)
Escherichia coli D31
  MIC: 28.3 µM (≈ 65.1 µg/mL)
Bacillus subtilis
  MIC: 28.3 µM (≈ 65.1 µg/mL)
Trichoderma viride
  MIC: 14.1 µM (≈ 32.6 µg/mL)
Pediococcus acidilactici
  MIC: 28.3 µM (≈ 65.1 µg/mL)
Fusarium culmorum
  MIC: 14.1 µM (≈ 32.6 µg/mL)
Aerococcus viridans
  MIC: 3.54 µM (≈ 8.14 µg/mL)
Botrytis cinerea
  MIC: 7.07 µM (≈ 16.3 µg/mL)

## CC[C@H](C)[C@H](N)C(=O)N[C@@H](CC(C)C)C(=O)N[C@@H](CO)C(=O)N[C@@H](CC(C)C)C(=O)N[C@@H](CCCN=C(N)N)C(=O)N[C@@H](Cc1c[nH]c2ccccc12)C(=O)N[C@@H](Cc1c[nH]c2ccccc12)C(=O)N[C@@H](CCCN=C(N)N)C(=O)N[C@@H](CCCCN)C(=O)N[C@@H](Cc1c[nH]c2ccccc12)C(=O)N[C@@H](Cc1c[nH]c2ccccc12)C(=O)N[C@@H](CCCCN)C(=O)N[C@@H](CCCCN)C(=O)O [ILSLRWWRKWWKK]
Streptococcus mutans
  MIC: 4 µM (≈ 7.55 µg/mL)
[19]
  MIC: 16 µM (≈ 30.2 µg/mL)
[3]
  MIC: 32 µM (≈ 60.4 µg/mL)
[4]
  MIC: 32 µM (≈ 60.4 µg/mL)
Streptococcus agalactiae
  MIC: 8 µM (≈ 15.1 µg/mL)
[14]
  MIC: 16 µM (≈ 30.2 µg/mL)
Klebsiella pneumoniae
  MIC: 136 µM (≈ 257 µg/mL)
[7]
  MIC: 16 µM (≈ 30.2 µg/mL)
[20]
  MIC: 4 µM (≈ 7.55 µg/mL)
[21]
  MIC: ≥ 32 µM
Streptococcus pyogenes
  MIC: 2 µM (≈ 3.77 µg/mL)

## CC(C)C[C@H](NC(=O)[C@H](CC(C)C)NC(=O)[C@H](CCCCN)NC(=O)[C@H](CCCCN)NC(=O)[C@H](CC(C)C)NC(=O)[C@H](CC(C)C)NC(=O)[C@@H](N)CS)C(=O)N[C@@H](CCCCN)C(=O)N[C@@H](CCCCN)C(N)=O [CLLKKLLKK]
[22]
  MIC: ≥ 460 µM
[16]
  MIC: ≥ 460 µM
